Test results published in patent US20130331381A1, “Treatment of Cancer WIth Dopamine Receptor Antagonists” (McMaster University, priority 2011, published 2013).
Where a name gives a salt, the structure may show the parent alone. Read-outs that look alike come from different tables or passages of the source.

Experiments:
[1] = system: neoplastic hPSCs (v1H9-Oct4-GFP); test: Flow cytometry of Oct4 in neoplastic hPSCs; format: cell-based, human; conditions: FIG. 10b
[2] = system: patient AML samples, DR+ and DR- subfractions; test: Blast-CFU content of DR+ and DR- sorted patient AML samples; format: cell-based, human; conditions: 24 h treatment
Excerpt: (§1) Due to the bioavailability of dopamine in fetal bovine serum (FBS) (Little et al., 2002), serum-free conditions were employed to assess the role of DRs in AML. […] DR D2-family and D1-family exert opposing actions on intracellular signaling leading to differential biological effects (Self et al., 1996).

[3] = system: CD14+ cells in primary AML; test: Frequency of CD14+ cells in primary AML by flow cytometry; format: cell-based, human; conditions: 10 μM, 72 h; control 100%
patient AML cells = test: CD11b granulocytic maturation in patient AML cells; format: cell-based, human; conditions: 10 μM, up to 96 hours
[4] = system: normal HSCs and progenitors (CB lin-); test: Methylcellulose colony forming assay, normal HSCs / HSPCs; conditions: 10 μM, at least 14 days; DMSO control about 100
Method: (§3) Normal HSCs and progenitors were sourced from either mobilized peripheral blood or umbilical cord blood of health patients. Primary AML cells were taken from patients diagnosed with AML. Both normal HSCs and primary AML cells were cultured under standard in vitro methocellulose assay conditions (see http://www.stemcell.com/en/Products/All-Products/MethoCult-H4434-Classic.aspx as well as Clinton Campbell et al. The human stem cell hierarchy is defined by a functional dependence on Mcl-1 for self-renewal capacity. Blood 116 (9) 1433-1442 (Jun. 4, 2010), hereby incorporated by reference) for at least 14 days before the number of colonies were recorded.
(§4) AML patient blasts were cultured in IMDM supplemented with 5% heated inactivated FBS (HyClone), 5 ng/mL IL3 (R&D systems), 5×10^−5 M β-mercaptoethanol (Sigma) and BIT (StemCell Technologies). HSC media contained IMDM supplemented with 1% BSA (Sigma), 100 ng/mL SCF (R&D systems), 100 ng/mL Flt-3L (R&D systems) and 20 ng/mL TPO (R&D systems). Patient HSPC and AML samples were treated with compound or DMSO-vehicle (0.1%) for 24 h prior to CFU plating or xenotransplantation studies.
(§5) AML patient or CB lin− cells were cultured 24 hours in the presence of compound or DMSO-vehicle (0.1%) control. AML cells were plated at 50 000 cells/mL in Methocult GF H4434 (Stem Cell Technologies). CB lin− cells were plated at 1000 cells/mL in Methocult GF H4434 (Stem Cell Technologies). Colonies were scored after 14 days of culture using standard morphological criteria.

AML-OCI2 and AML-OCI3 = test: Volumetric cell counting of AML cell lines; format: cell-based, human; conditions: 72 h, serum-free conditions
Method: The number of AML-OCI2 and AML-OCI3 cells present after 72 h treatment with DR antagonists (FIG. 16b) and agonist (FIG. 16c-d) were counted by measuring the number of events within a fixed volume following the grating strategy defined by forward scatter and side scatter clustering, 7AAD− and Hoechst+.
as §1

AML LSCs = test: Xenotransplantation of compound-treated AML cells; format: in vivo, human; conditions: AML cells treated at 10 μM, NSG mice
Method: NOD.Cg-Prkdc^scid II2rg^tm1Wjl/SzJ adult mice (NSG) were sub-lethally irradiated with 315 rads 24 hours prior transplantation. 0.8−1.0×10^7 AML MNCs or 1.5−1.8×10^5 CB lin− hematopoietic cells treated with compound or DMSO-vehicle for 24 h were injected via tail vein (IV). After 6-10 weeks, animals were culled, and the BM and spleen were analyzed for the presence of human cells by flow cytometry (LSRII, BD) and data was analyzed using FlowJo software (Tree Star Inc). For secondary HSPC transplants, equal number of engrafted human cells from CB lin− transplants were injected IV in adult irradiated NSG mice as described for primary transplants.

neoplastic hPSCs = test: TaqMan Low-Density Array-qPCR of differentiation genes; format: cell-based, human; conditions: thioridazine-treated neoplastic hPSCs
Method: Cells in specific conditions were collected and RNA was extracted by using RNeasy kit (Qiagen), complementary DNA (cDNA) generation by using SuperScript III® cDNA synthesis kit (Invitrogen), pre-amplification and TaqMan® array reaction (Applied Biosystems) were performed according to manufacturer's instructions. The gene expression profile for each treated cell population was analyzed using TaqMan® Stem Cell Pluripotency Array Card on ViiA 7 Real-Time PCR System (Applied Biosystems). Each reaction sample was dispensed into loading wells on the array card and centrifuged twice at 336×g for 1 min each time, sealed, and placed in the thermal cycler. The following cycling conditions were used for all array card applications: 45° C. for 10 min, 94° C. for 10 min, and 40 cycles of 94° C. for 30 s followed by 60° C. for min. Array data were normalized to 18S RNA and GAPDH and comparisons were performed using data analysis 2.0 software (Applied Biosystems).

v1H9-Oct4-GFP cells = test: Chemical screen for differentiation of neoplastic hPSC (GFP and Hoechst); format: cell-based; conditions: Homo sapiens; for activity at 10 µM: 72 h, read-out: Hoechst % RA (residual activity)
Method: Chemical screens involved v1H9-Oct4-GFP cells seeded at 5,000 cells per well in mouse embryonic fibroblast conditioned media (MEFCM) supplemented with 8 ng/ml bFGF. 24 hours later the media was exchanged for MEFCM with compounds at 10 μM and 0.1% DMSO, 0.1% DMSO (−BMP4) or 100 ng/ml of BMP4 and 0.1% DMSO (+BMP4) for 48 hours before being exchanged with fresh media with compound for a further 24 h (total compound treatment time 72 h) prior to being fixed and prepared for automated imaging and plate reader analysis. Confluent H9 & fibroblast-derived iPSC were seeded at 10,000 cells per well in MEFCM supplemented with 8 ng/ml bFGF. 24 hours later the cells were treated with compounds at 10 μM and 0.1% DMSO, 0.1% DMSO (−BMP4) or 100 ng/ml of BMP4 and 0.1% DMSO (+BMP4). Fresh MEFCM supplemented with compounds was exchanged daily for 5 days. On day 5, hPSC's were fixed and prepared for automated imaging and plate reader analysis. See supplementary experimental procedures for further details.
Cells were fixed in 2% paraformaldehyde and stained with 10 μg/mL Hoechst 33342 (Invitrogen) with a Combi Multidrop Dispenser (Thermo). For experiments that involved Oct4 immunocytochemistry, a monoclonal antibody for Oct4 (BD) was used along with an Alexa-Fluor-647 secondary (Invitrogen). Immunocytochemical staining was performed by a Janus automated liquid handler (Perkin Elmer). Images were acquired at 10×N.A with an Arrayscan HCS VTI Reader (Cellomics) by means of epi-fluorescence illumination and standard filter sets.
Image analysis was performed using custom scripts in Acapella software (Perkin Elmer). Nuclear objects were segmented from the Hoechst signal. For neoplastic cell lines, object intensity analysis was performed on GFP positive cells only. For normal cell lines, the fraction of Alexa-Fluor-647-positive cells was quantified. Images and well-level data were stored and analysed in a Columbus Database (Perkin Elmer) and further data analysis, compounds registration and hit identification in ActivityBase (IDBS).
These Collections have been previously scrutinized in numerous other mammalian cell lines (Diallo et al., 2010; Shoemaker, 2006).

[5] = system: normal HSCs and progenitors (CB lin-)
Method: as §3, §4, §5

[6] = system: HL-60, MV4-11 and OCI-AML3; test: Cytotoxicity to leukemic cell lines (normalized cell number, 72 h); format: cell-based, human; conditions: for normalized cell number / toxicity: 10 μM
Method: (§2) All three lines are leukemic cell lines. HL-60 was derived from promyelocytic AML whereas MV 4-11 and OCI-AML3 are representative of AML. Each compound was incubated with the cells for 72 h. The control was DMSO (ie the vehicle used for the compound) for 72 h. Each condition had three replicates.
The dopamine receptor antagonist and phenothiazine-related compound chlorpromazine was also investigated for effects on the AML cell lines HL-60, MV4-11 and OCI-AML3. Testing was performed as set out in Example 1.

[7] = system: HL-60, OCI-AML2 and OCI-AML3; test: Cytotoxicity of DR agonists and antagonists against AML cell lines; format: cell-based, human; conditions: CLOZ at higher concentrations; FIG. 6
Method: as §2
A series of dopamine receptor agonists, D3-antagonists, DR1 & 5-antagonists and multi-receptor antagonists were tested for cytotoxicity against three AML cell lines HL-60, OCI-AML2 and OCI-AML3. Testing was performed as set out in Example 1.

primary AML cells = test: Methylcellulose blast-CFU assay, primary AML cells; format: cell-based, human; conditions: for AML-blast CFU potential: salinomycin at 1 μM and 10 μM, 24 h treatment, 5 AML patient samples
Method: as §3, §4, §5

CSc1ccc2c(c1)N(CCC1CCCCN1C)c1ccccc1S2 (racemic) [thioridazine, 10-{2-[(RS)-1-Methylpiperidin-2-yl]ethyl}-2-methylsulfanylphenothiazine]
cell number, neoplastic hPSCs [1]: reductions
levels of Oct4 in neoplastic hPSCs [1]: reductions
blast-CFU generation, DR+ subfraction [2]: reduction
blast-CFU generation, DR- subfraction [2]: no reduction
normalized frequency of CD14+ cells [3]: 20%
frequency of CD11b granulocytic AML-blast cells (patient AML cells): marked increase
colony forming potential of normal HSCs, total colonies [4]: about 66 total colonies
number of AML cells (AML-OCI2 and AML-OCI3): reduced
AML LSC capacity (CD45+ CD33+ blast engraftment) (AML LSCs): significantly reduce
upregulated differentiation-associated genes (neoplastic hPSCs): 21 of 50
activity at 10 µM (v1H9-Oct4-GFP cells; 10 μM): > 30%
HSPC CFU potential [5]: little effect
normalized cell number ([6]; 0.1 μM and 1 μM): little effect
normalized cell number / toxicity [6]: almost zero
cytotoxicity of AML cell lines [7]: significant effect
number of CFU colonies, AML cells (primary AML cells; 10 μM, at least 14 days, control about 22): 1.6 blast colonies
AML-blast CFU potential (primary AML cells): reduced

Br.CCCN(CCC)[C@@H]1CCc2ccc(O)cc2C1 [70H-DPAT, R(+)-7-Hydroxy-DPAT hydrobromide]
number of AML cells (AML-OCI2 and AML-OCI3): increased

Oc1cc2c(cc1O)[C@@H](c1ccccc1)CNCC2 [SKF38393, (R)-(+)-SKF-38393 hydrochloride]
number of AML cells (AML-OCI2 and AML-OCI3): significant reduction

Cn1cnc([N+](=O)[O-])c1Sc1ncnc2nc[nH]c12 [azathioprine]
activity at 10 µM (v1H9-Oct4-GFP cells; 10 μM): > 30%

CN(C)CCCN1c2ccccc2Sc2ccc(Cl)cc21 [chlorpromazine, Chlorpromazine hydrochloride]
number of AML cells (AML-OCI2 and AML-OCI3): reduced
normalized cell number / toxicity [6]: toxic
cytotoxicity of AML cell lines [7]: significant effect

CN1CCN(C2=Nc3cc(Cl)ccc3Nc3ccccc32)CC1 [clozapine, Clozapine]
cytotoxicity of AML cell lines [7]: significant effect

CNC1CC(c2ccc(Cl)c(Cl)c2)c2ccccc21 (stereo not shown) [indatraline]
activity at 10 µM (v1H9-Oct4-GFP cells): > 30%

OC(c1cc(C(F)(F)F)nc2c(C(F)(F)F)cccc12)C1CCCCN1 (stereo not shown) [mefloquine]
cell number, neoplastic hPSCs [1]: reductions
levels of Oct4 in neoplastic hPSCs [1]: reductions
AML LSC capacity (CD45+ CD33+ blast engraftment) (AML LSCs): ineffective
activity at 10 µM (v1H9-Oct4-GFP cells; 10 μM): > 30%
EC50 (v1H9-Oct4-GFP cells; dose response, FIG. 9g, read-out: EC50, reduction in GFP intensity): < 10 µM
HSPC CFU potential [5]: little effect
AML-blast CFU potential (primary AML cells): reduced

CC[C@@H](C(=O)[C@@H](C)[C@@H](O)[C@H](C)[C@@H]1O[C@@H]([C@@H](CC)C(=O)O)CC[C@@H]1C)[C@H]1O[C@]2(C=C[C@@H](O)[C@]3(CC[C@@](C)([C@H]4CC[C@](O)(CC)[C@H](C)O4)O3)O2)[C@H](C)C[C@@H]1C [salinomycin]
HSPC CFU potential [5]: reduced
AML-blast CFU potential (primary AML cells): reduced
